Among the data in patent publication US6743586B2, “Rapid fluorescence detection of binding to nucleic acid drug targets labelled with highly fluorescent nucleotide base analogs” (The United States of America as represented by the …, priority 2001, dated 2004) are Kd values, retold here.

The target of one experiment is 72AP-RRE-peptide complex. As to the kind of experiment: Competitive displacement: 72AP-RRE-peptide complex (1:1) titrated with Neomycin B, Dynafit fit. It counts as binding, HIV-1. How it is done:
Quantitative analysis of the binding event indicates the rev peptide binds to 2-AP RRE with wild type affinity (KD˜13±2 nM). The fluorescent 72AP-RRE construct is also a useful probe for assaying small molecule binding to RRE, as well as determining if the small molecule is an effective inhibitor of the rev-RRE interaction. For example, it has been shown using the aminoglycoside Neomycin B, a known inhibitor of RRE-rev interaction, that the 72AP-RRE construct can be used to detect small molecule inhibition of the rev-RRE interaction. […]
The fluorescence of RNA oligonucleotide samples (150 μL), selectively labeled with 2-AP, was measured at 10° C. on a SPEX Fluoromax-2 spectrofluorometer (Instruments, SA, Edison, N.J.) using a 0.3 cm square cuvette. […] Emission spectra were recorded over the wavelength range of 330 to 450 nm with an excitation wavelength of 310 nm. […] The dissociation constant for rev binding to RRE-72AP was determined by following the increase in fluorescence at 370 nm as a fixed concentration of the fluorescent RNA was titrated with increasing amounts if rev. Similarly, the binding of aminoglycosides was followed by monitoring the change in 2-AP fluorescence as a fixed concentration of RRE-72AP or RRE-68AP was titrated with increasing amounts of the aminoglycoside. […]

A further experiment has as its target 68AP-RRE. Briefly: 2-AP fluorescence titration of 68AP-RRE with aminoglycosides. The experiment is classed as binding, HIV-1. The procedure: For example, using the 68AP-RRE construct, three classes of binding sites for the Neomycin B can be detected.
The fluorescence of RNA oligonucleotide samples (150 μL), selectively labeled with 2-AP, was measured at 10° C. on a SPEX Fluoromax-2 spectrofluorometer (Instruments, SA, Edison, N.J.) using a 0.3 cm square cuvette. RRE sample concentration was typically 100 nM in either standard buffer A (140 mM NaCl, 5 mM KCl, 1 mM MgCl2, 1 mM CaCl2, and 20 mM HEPES [7.4 pH]) or buffer B (25 mM NaCl, 5 mM KCl and 1 mM Cacodylate [6.5 pH]). Emission spectra were recorded over the wavelength range of 330 to 450 nm with an excitation wavelength of 310 nm. The spectral bandpass was 5 nm for all spectra. The dissociation constant for rev binding to RRE-72AP was determined by following the increase in fluorescence at 370 nm as a fixed concentration of the fluorescent RNA was titrated with increasing amounts if rev. Similarly, the binding of aminoglycosides was followed by monitoring the change in 2-AP fluorescence as a fixed concentration of RRE-72AP or RRE-68AP was titrated with increasing amounts of the aminoglycoside. Single site binding of rev or aminoglycoside was fitted to Formula I: […]
where Fo and Ff are the initial and final fluorescence intensities, respectively, [RRE]tot is the total RRE concentration, and [L]tot is the total concentration of rev, aminoglycoside or other ligands. Aminoglycoside binding to multiple sites on RRE was modeled using the computer program Dynafit. Competitive displacement assays were performed to determine which aminoglycoside binding were inhibitory to rev binding. For these experiments, a solution of 2-AP labeled RRE was incubated with a fixed concentration of Neomycin B (or rev peptide), and the fluorescence change followed as increasing amounts of competing rev peptide (or Neomycin B) was added to the solution. The fluorescence emission intensities at 370 nm as a function of total added ligand concentration were fit to a given molecular mechanism by non-linear least squared regression using the computer program Dynafit.

The target of another experiment is 72AP-RRE. Briefly: 2-AP fluorescence titration of RRE-72AP with rev peptide. The settings on record: fluorescence at 370 nm, 10° C., wild type affinity, read-out: KD of rev peptide binding to 2-AP RRE. Also noted: species or system HIV-1. How it is done:
The fluorescence of RNA oligonucleotide samples (150 μL), selectively labeled with 2-AP, was measured at 10° C. on a SPEX Fluoromax-2 spectrofluorometer (Instruments, SA, Edison, N.J.) using a 0.3 cm square cuvette. RRE sample concentration was typically 100 nM in either standard buffer A (140 mM NaCl, 5 mM KCl, 1 mM MgCl2, 1 mM CaCl2, and 20 mM HEPES [7.4 pH]) or buffer B (25 mM NaCl, 5 mM KCl and 1 mM Cacodylate [6.5 pH]). Emission spectra were recorded over the wavelength range of 330 to 450 nm with an excitation wavelength of 310 nm. The spectral bandpass was 5 nm for all spectra. The dissociation constant for rev binding to RRE-72AP was determined by following the increase in fluorescence at 370 nm as a fixed concentration of the fluorescent RNA was titrated with increasing amounts if rev. Similarly, the binding of aminoglycosides was followed by monitoring the change in 2-AP fluorescence as a fixed concentration of RRE-72AP or RRE-68AP was titrated with increasing amounts of the aminoglycoside. Single site binding of rev or aminoglycoside was fitted to Formula I:
F=−{(Fo−Ff)/2*[RRE]tot}{b−{square root over ((b^2−4[L]tot[RRE]tot))}}+Fo (1)
where Fo and Ff are the initial and final fluorescence intensities, respectively, [RRE]tot is the total RRE concentration, and [L]tot is the total concentration of rev, aminoglycoside or other ligands. […]

In the next experiment the target is RRE. The settings on record: direct binding, highly specific for the RRE; read-out: KD of rev binding to RRE; cited from earlier work.

Where two headings read alike, the source gives them in different places. *1 amine or outer side, *2 acyl side, *3 side chain or, on linkers, in order; H or OH if unused. Where no end group is shown, it is not given here. Suc = O=C(CCC(=O)[*:2])[*:1]

By Kd is commonly meant the free concentration of one partner at which half of the binding sites on the other are occupied at equilibrium, for simple one-to-one binding. Consider `NC[C@@H]1O[C@H](O[C@H]2[C@@H](O)[C@H](O[C@@H]3[C@@H](O)[C@H](N)C[C@H](N)[C@H]3O[C@H]3O[C@H](CN)[C@@H](O)[C@H](O)[C@H]3N)O[C@@H]2CO)[C@H](N)[C@@H](O)[C@@H]1O` [Neomycin B], for which the Kd is about 0.23 µM at 72AP-RRE-peptide complex (read-out: KD, first tight site); about 1.9 µM at 72AP-RRE-peptide complex (read-out: KD, second site, competitive with rev); 0.24 ± 0.04 µM at 68AP-RRE (68AP-RRE construct, read-out: KD, first site, non-inhibitory to rev binding); 1.8 ± 0.08 µM at 68AP-RRE (68AP-RRE construct, read-out: KD, second site, inhibited rev binding in a competitive fashion); about 40 µM at 68AP-RRE (68AP-RRE construct, read-out: KD, third class of sites, non-specific binding).

`[H]/N=C(/N)N[C@H]1[C@H](O)[C@@H](O)[C@H](O[C@@H]2O[C@@H](C)[C@](O)(C=O)[C@H]2O[C@@H]2O[C@@H](CO)[C@H](O)[C@@H](O)[C@@H]2NC)[C@@H](N/C(N)=N\[H])[C@@H]1O` [Streptomycin]: at 68AP-RRE (RRE, reported alongside the 68AP-RRE data, read-out: KD, low affinity binding interaction with RRE), the Kd was 1.5 µM.

For Suc-TRQARRNRRWRERQRAAAK [rev peptide], at 72AP-RRE, the Kd was about 0.013 µM.

With “rev: HIV-1 regulatory protein rev that binds the rev-responsive element (RRE)”, the dissociation constant (Kd) on RRE was 0.001 to 0.003 µM.
